ChEMBL document CHEMBL1201862, “PubChem BioAssay data set” (2004)
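96-well plates; 48 h exposure; 5 concentrations. Endpoints by linear interpolation between flanking doses. Not reached: highest tested concentration assigned. Here, GI50 denotes the concentration required for 50% inhibition of growth.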 Active and inactive are the calls of the source. Rule as the data show it: active = GI50 up to about 1.1 µM and inactive = higher.

Key:
Experiment in all cases: NCI tumour cell line growth inhibition, 48 h
DLD-1 = system: DLD-1
DMS-114 = system: DMS-114
DMS-273 = system: DMS-273
LXFL 529 = system: LXFL 529
M19-MEL = system: M19-MEL
SNB-78 = system: SNB-78
XF498 = system: XF498
HOP-18 = system: HOP-18
RXF 631 = system: RXF 631

| Structure (SMILES) | GI50 (DLD-1) | GI50 (DMS-114) | GI50 (DMS-273) | GI50 (LXFL 529) | GI50 (M19-MEL) | GI50 (SNB-78) | GI50 (XF498) | GI50 (HOP-18) | GI50 (RXF 631) |
| --- | --- | --- | --- | --- | --- | --- | --- | --- | --- |
| O=c1cccccc1NCCCCCCCCCNc1cccccc1=O | 10.8 µM (inactive) | 1.35 µM (inactive) | 12.5 µM (inactive) | 8.97 µM (inactive) | 15.2 µM (inactive) | 17.1 µM (inactive) | 7.36 µM (inactive) |  |  |
| COCCN1C2=CCCCC2=Nc2c1nc(N)[nH]c2=O | > 100 µM (inactive) | > 100 µM (inactive) | > 100 µM (inactive) | > 100 µM (inactive) | > 100 µM (inactive) | > 100 µM (inactive) | > 100 µM (inactive) | > 100 µM (inactive) | > 100 µM (inactive) |
| O=C(/C=C/c1ccccc1)CC1OC(=O)c2ccccc21 (stereo not drawn) | > 100 µM (inactive) | 46.3 µM (inactive) | > 100 µM (inactive) | 46.7 µM (inactive) | 45.8 µM (inactive) |  | > 100 µM (inactive) | 14.9 µM (inactive) |  |
| CCC(C)(C)C(=O)O[C@H]1C[C@@H](C)C=C2C=C[C@H](C)[C@H](CC[C@@H]3C[C@@H](O)CC(=O)O3)[C@H]21 [SIMVASTATIN] | > 30 µM (inactive) | 23.7 µM (inactive) | 2.88 µM (inactive) | 6.67 µM (inactive) | 1.56 µM (inactive) | > 30 µM (inactive) | > 30 µM (inactive) | > 30 µM (inactive) | 0.55 µM (active) |
| N#CC1CC(c2ccccc2)Nc2cc(Cl)ccc2N1 (stereo not drawn) | 28.9 µM (inactive) | 5.78 µM (inactive) | 31.2 µM (inactive) | 21 µM (inactive) | 44.8 µM (inactive) | 50.7 µM (inactive) | 29.7 µM (inactive) | > 87.1 µM (inactive) |  |
| CCOP(=O)(OCC)OC(C#N)c1ccc(-c2ccccc2)cc1 (stereo not drawn) | 18.4 µM (inactive) | 15 µM (inactive) | 14.4 µM (inactive) | 17.8 µM (inactive) | 21.9 µM (inactive) | 33 µM (inactive) | 23.9 µM (inactive) | 27.7 µM (inactive) |  |
| CC1=C(C(=O)O)N2C(=O)[C@@H](NC(=O)C(c3ccccc3)N3CSC(=S)N(C(C)C)C3)C2SC1 (stereo partly drawn) | > 100 µM (inactive) |  | > 100 µM (inactive) | > 100 µM (inactive) | > 100 µM (inactive) | > 100 µM (inactive) | > 100 µM (inactive) | > 100 µM (inactive) |  |
| N#Cc1cc([N+](=O)[O-])ccc1NC(=O)C(=O)C(C(=O)/C=C/c1ccccc1)C1OC(=O)c2ccccc21 (stereo not drawn) | > 100 µM (inactive) | > 100 µM (inactive) |  | > 100 µM (inactive) | > 100 µM (inactive) | > 100 µM (inactive) | > 100 µM (inactive) | > 100 µM (inactive) | > 100 µM (inactive) |
| COc1cc(-c2c(C)c(C)nc(OC)c2C#N)cc(OC)c1OC | > 100 µM (inactive) | 49.8 µM (inactive) |  | 41.9 µM (inactive) | > 100 µM (inactive) | 92 µM (inactive) |  | 46.1 µM (inactive) |  |
| CC1(C)COC(c2cccnc2/C=N/O)=N1 | > 100 µM (inactive) |  | > 100 µM (inactive) | > 100 µM (inactive) | > 100 µM (inactive) | > 100 µM (inactive) | > 100 µM (inactive) | > 100 µM (inactive) | > 100 µM (inactive) |
| CCCC1N2CCCCC2[C@@H]2c3[nH]c4ccccc4c3CCN12 (stereo partly drawn) | > 100 µM (inactive) | > 100 µM (inactive) | > 100 µM (inactive) | > 100 µM (inactive) | > 100 µM (inactive) | 53.8 µM (inactive) | > 100 µM (inactive) | > 100 µM (inactive) |  |
| Cc1cc(C)nc(NS(=O)(=O)c2ccc(Nc3c4ccccc4nc4c(C(=O)Nc5ccc(S(=O)(=O)N=C(N)N)cc5)cccc34)cc2)n1 | > 100 µM (inactive) | > 100 µM (inactive) | > 100 µM (inactive) |  | > 100 µM (inactive) | > 100 µM (inactive) |  | > 100 µM (inactive) | > 100 µM (inactive) |
| O=C(CCC(=O)Nc1ccc(Cl)cc1)CC(=O)c1ccc(F)cc1 | > 100 µM (inactive) |  | > 100 µM (inactive) | > 100 µM (inactive) |  | > 100 µM (inactive) | > 100 µM (inactive) |  |  |
| Oc1ccc2ccccc2c1/N=N/c1ccc(F)cc1 |  | > 100 µM (inactive) | > 100 µM (inactive) | > 100 µM (inactive) | > 100 µM (inactive) |  |  | > 100 µM (inactive) |  |
| CC(C)(C)C(=O)C1CC(=O)c2ccccc2C1=O (stereo not drawn) | 30.4 µM (inactive) | 33.9 µM (inactive) |  |  | 32.9 µM (inactive) | 27.5 µM (inactive) | 34.4 µM (inactive) | 37.5 µM (inactive) | 36.7 µM (inactive) |
| COc1ccc(/C=C\c2cc(OC)c(O[Si](C)(C)C(C)(C)C)c(OC)c2)cc1 | 45.3 µM (inactive) | 20.3 µM (inactive) | 44.4 µM (inactive) | 33.7 µM (inactive) | 32.3 µM (inactive) |  | 22.6 µM (inactive) |  | 45.8 µM (inactive) |
| COc1cc2ccc3c4ccccc4cnc3c2cc1OC | > 100 µM (inactive) |  |  | > 100 µM (inactive) | > 100 µM (inactive) | > 100 µM (inactive) |  | > 100 µM (inactive) | > 100 µM (inactive) |
| Cc1cc(N(CCC#N)CCC#N)ccc1/C=C1N=C(/C=C\c2ccccc2)N(NC(=O)CC(=O)Nc2ccccc2Cl)C\1=O | > 100 µM (inactive) | > 100 µM (inactive) |  | > 100 µM (inactive) | > 100 µM (inactive) |  |  | > 100 µM (inactive) | > 100 µM (inactive) |
| C#CCC(O)c1ccccc1C(O)CC#C (stereo not drawn) | > 100 µM (inactive) | > 100 µM (inactive) | > 100 µM (inactive) | > 100 µM (inactive) | > 100 µM (inactive) | 77.8 µM (inactive) |  |  |  |
| O=C1C(=O)N(c2ccc(Cl)cc2)C(=O)C(=O)C1c1nc2ccccc2s1 |  | > 100 µM (inactive) | > 100 µM (inactive) | > 100 µM (inactive) | > 100 µM (inactive) | > 100 µM (inactive) | > 100 µM (inactive) | > 100 µM (inactive) |  |
| CN(Cc1cnc2nc(N)nc(N)c2n1)c1ccc(C(=O)NC(CCC(=O)O)C(=O)O)c2ccccc12 (stereo not drawn) | 0.01 µM (active) | 0.000847 µM (active) | 0.01 µM (active) | 0.00135 µM (active) | 0.01 µM (active) | > 65 µM (inactive) | > 100 µM (inactive) | > 100 µM (inactive) |  |
| COC(=O)C12CCC(CC1=O)C2(C)C (stereo not drawn) | > 100 µM (inactive) | 99.5 µM (inactive) | > 100 µM (inactive) |  |  |  | > 100 µM (inactive) | > 100 µM (inactive) |  |
| CCOC(=O)/C(C(=O)c1ccccc1)=C1\N[C@H](C(=O)OCC)CS1 | > 100 µM (inactive) |  |  | > 100 µM (inactive) |  | > 100 µM (inactive) | > 100 µM (inactive) | 16.3 µM (inactive) | > 100 µM (inactive) |
| NN1C(=O)C(CCO)S/C1=N/N=C1/SC(CCO)C(=O)N1N (stereo not drawn) | > 100 µM (inactive) | > 100 µM (inactive) |  | > 100 µM (inactive) | > 100 µM (inactive) | > 100 µM (inactive) | 16.1 µM (inactive) | > 100 µM (inactive) |  |
| CC(=O)OC1CC2(c3ccccc3)C(=O)c3ccccc3N2O1 (stereo not drawn) | > 100 µM (inactive) | > 100 µM (inactive) | > 100 µM (inactive) | > 100 µM (inactive) | > 100 µM (inactive) | > 100 µM (inactive) | > 100 µM (inactive) | > 100 µM (inactive) |  |
| N#CC(C(=O)C(N)=O)c1ccccc1Cl (stereo not drawn) | > 100 µM (inactive) | > 100 µM (inactive) | > 100 µM (inactive) | > 100 µM (inactive) | > 100 µM (inactive) |  | > 100 µM (inactive) | > 100 µM (inactive) | > 100 µM (inactive) |
